Here are results for one compound from patent publication US6197774A, “Pyrimidine derivative” (Otsuka Pharmaceutical Co., Ltd., priority 1997, dated 2001).

The subject of data set [1] is contact hypersensitivity. The experiment in a line: Contact hypersensitivity model in mouse (atopic dermatitis model). The class given is in vivo. Conditions: po, 2 mg/Kg p.o., 30 minutes before causal induction, 24 hours, read-out: Control % (intumescence of the pinna, untreated = 100). How it is done:
[Contact hypersensitivity model in mouse (Atopic dermatisis model)]
Test was conducted by referring to the method as described in "HIFU (a Japanese journal of dermatology)" Vol. 35, Supplemental Issue No. 15, pp. 96-106, published on March 1993.
CBA/J strain mice of 6-8 week age were used as the test animals (6-8 mice in one group). The mouse was sensitized by coating 150 μl of 5% of picryl chloride [dissolved in a mixture of acetone with olive oil (1:4)] on the shaved portion of skin in the back of mouse. […] 24 Hours after the causal induction, the effect for inhibiting contact hypersensitivity performed by the test compounds were evaluated by referring to the action for inhibiting intumescence of the pinna as an indication. The test compound was orally administered 30 minutes before the causal induction.
The following compounds were used for the test.
1) Compounds of the Present Invention:
(Dosage: 20 mg/Kg p.o., which is 7-10 times larger amount of dosages for compounds of the present invention)
The value obtained from the sensitization test without administration of the test compound was referred to as 100, and by comparing with the values obtained from the sensitization test with administration of the test compound was referred to "% control" values.

Data set [2] is described as follows: Toxicity of compound against the cell strain RAW 264.7 (MTT). Type of data set: cell-based. The conditions noted are these: mouse, raw 264.7 cells, 1 × 10^-6 M, read-out: Ratio of optical absorbance. How it is done: [Toxicity test (Toxicity of compound against the cell strain RAW 264.7)]
Test was conducted in accordance with the method as described in J. Immunol. Methods, Vol. 94, pp. 57-68, (1986). Cell strain RAW 264.7 derived from the macrophage of mouse was incubated similarly as in the method of Test Example 1(1). After that, MTT reagent (5 mg/ml) in 1/10 amount of the culture medium was added to the cells, and incubated for 4 hours. The supernatant of culture medium was taken off, then the cells were collected by using 1% SDS solution and the optical absorbance at 570-630 nm of the SDS solution was measured.

Take `COCc1cc(=O)n2ncc(-c3ccc(Sc4ccccc4)cc3)c2[nH]1` [Example 1, 4,7-dihydro-5-methoxymethyl-7-oxo-3-(4-phenylthiophenyl)pyrazolo[1,5-a]pyrimidine]: the response vs control in vivo at 2 mg/kg in data set [1] was 53.7%. For the same compound, in data set [2], the viability at 1 µM came out at 109%.
